We go through 42 compounds from US6787541B1, “Thieno-and furopyrimidine derivatives as A2A-receptor antagonists” (Vernalis Research Limited, priority 1999, dated 2004).

For data set [1], the target named is T1, human adenosine A2A receptors expressed in HEK-293 cells (Homo sapiens, UniProt P29274).
T1 construct: expressed in transfected cells; host or cells: HEK-293 cells
The data set is described as follows: Binding affinities at hA2A receptors, displacement of [3H]-CGS 21680. In general terms: Loss of bound radioactivity is the signal in a displacement assay; it reports binding, not function.

Structures can show the parent of a compound that is named as a salt.

T1 sequence (P29274 whole entry): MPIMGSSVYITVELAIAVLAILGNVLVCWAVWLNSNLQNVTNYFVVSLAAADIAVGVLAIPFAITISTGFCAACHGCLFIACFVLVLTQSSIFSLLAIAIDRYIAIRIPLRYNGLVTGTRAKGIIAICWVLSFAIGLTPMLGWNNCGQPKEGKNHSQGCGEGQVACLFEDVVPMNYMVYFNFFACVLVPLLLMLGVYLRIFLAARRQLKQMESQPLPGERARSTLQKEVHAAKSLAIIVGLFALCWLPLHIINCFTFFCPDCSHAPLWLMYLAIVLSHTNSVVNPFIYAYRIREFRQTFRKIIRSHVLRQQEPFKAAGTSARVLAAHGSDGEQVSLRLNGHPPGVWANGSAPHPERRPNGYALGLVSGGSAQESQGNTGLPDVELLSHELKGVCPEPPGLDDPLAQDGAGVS

By Ki is commonly meant the equilibrium dissociation constant of an inhibitor or competing ligand from its target. Lower therefore signals tighter binding. As usually defined, the melting point is the temperature of the solid-liquid transition. In turn, `O=C(c1ccccc1Cl)c1nc(C(F)(F)F)nc2ccsc12` [Example 8, 2-Chlorophenyl 2-trifluoromethylthieno[3,2-d]pyrimidin-4-ylmethanone] yielded a melting point of 122 to 123 °C. Also, in data set [1], the Ki turned out to be 586 nM. For the compound `CCCc1nc(C(C#N)c2ccccn2)c2sccc2n1` (stereo not drawn) [Example 60, 2-n-Propyl-α-(2-pyridyl)thieno[3,2-d]pyrmidine-4-acetonitrile], the melting point was in the range of 185 to 187 °C. In data set [1], this compound gave a Ki of 237 nM. On to `O=C(c1cccs1)c1nc(N2CCOCC2)nc2ccsc12` [Example 77, 2-(4-Morpholinyl)thieno[3,2-d]pyrimidin-4-yl 2-thienylmethanone], for which the melting point lay within 199.9 to 200.5 °C. The compound also gave a Ki in data set [1] of 97 nM.

In turn, `Cc1cc(C(=O)c2nc(C(F)(F)F)nc3ccsc23)oc1C` [Example 74, 4,5-Dimethyl-2-furyl 2-trifluoromethylthieno[3,2-d]pyrimidin-4-ylmethanone] showed a melting point of 185 to 186 °C. In addition, the Ki in data set [1] worked out at 90 nM. Take `CCCc1nc(C(O)c2cccs2)c2sccc2n1` (stereo not drawn) [Example 67, 2-n-Propyl-α-(2-thienyl)thieno[3,2-d]pyrimidine-4-methanol]: affinity in data set [1] was put at a Ki of 469 nM.

`O=C(c1ccc(Cl)s1)c1nc(C(F)(F)F)nc2ccsc12` [Example 12, 5-Chloro-2-thienyl 2-trifluoromethylthieno[3,2-d]pyrimidin-4-ylmethanone] gave a melting point of 165 to 167 °C. This compound also registered a Ki in data set [1] of 31 nM. For `COc1nc(C(=O)c2cccs2)c2scc(C)c2n1` [Example 37, 2-Methoxy-7-methylthieno[3,2-d]pyrimidin-4-yl 2-thienylmethanone], the melting point was in the range of 144 to 146 °C. The compound also came in with a Ki in data set [1] of 361 nM. As for `O=C(c1cccs1)c1nc(NCCCn2ccnc2)nc2ccsc12` [Example 104, 2-(3-(1H-Imidazol-1-yl)propylamino)thieno[3,2-d]pyrimidin-4-yl 2-thienylmethanone], the affinity in data set [1], expressed as Ki, was 2 nM. For the compound `O=C(c1cccs1)c1nc(NCCN2CCOCC2)nc2ccsc12` [Example 78, 2-(2-(4-Morpholinyl)ethylamino)thieno[3,2-d]pyrimidin-4-yl 2-thienylmethanone], the melting point is > 120 °C (dec.). Also, the affinity in data set [1], expressed as Ki, was 46 nM. Regarding `COC(=O)NCCNc1nc(C(=O)c2cccs2)c2sccc2n1` [Example 155, Methyl (2-(4-(2-thienylcarbonyl)thieno[3,2-d]pyrimidin-2-yl)aminoethyl)carbamate], the affinity in data set [1] corresponds to a Ki of 4 nM.

`CCCc1nc(C(=O)c2cccs2)c2sccc2n1` [Example 63, 2-n-Propylthieno[3,2-d]pyrimidin-4-yl 2-thienylmethanone] gave a melting point of 122 to 125 °C. Further, the Ki in data set [1] came out at 37 nM. In data set [1], `C[C@@H](O)CNc1nc(C(=O)c2cccs2)c2sccc2n1` [Example 103, (2R)-2-(2-Hydroxypropylamino)thieno[3,2-d]pyrimidin-4-yl 2-thienylmethanone] displayed a Ki of 6 nM. On the same count and under the same terms, the figure for “α-(3-Thienyl-2-trifluoromethylthieno[3,2- d]pyrimidine-4-acetonitrile [Example 17]” is 895 nM. “α-(2-Pyridyl-2-trifluoromethylthieno[3,2- d]pyrimidine-4-acetonitrile [Example 18]”: in data set [1], the affinity corresponds to a Ki of 346 nM. `CN(C)c1ccc(C(=O)c2nc(C(F)(F)F)nc3ccsc23)s1` [Example 56, 5-Dimethylamino-2-thienyl 2-trifluoromethylthieno[3,2-d]pyrimidin-4-ylmethanone] gave a melting point of 188 to 191 °C. The Ki in data set [1] stood at 309 nM. In turn, `CSc1nc(C(=O)c2cccs2)c2scc(C)c2n1` [Example 39, 7-Methyl-2-methylthiothieno[3,2-d]pyrimidin-4-yl 2-thienylmethanone] had a melting point of 144 to 166 °C. The compound further had a Ki in data set [1] of 575 nM. In turn, `O=C(c1cccs1)c1nc(Cl)nc2ccsc12` [Example 44, 2-Chlorothieno[3,2-d]pyrimidin-4-yl 2-thienylmethanone] returned a melting point of 190.5 to 191 °C. The compound also gave a Ki in data set [1] of 91 nM. For `O=C(c1cccs1)c1nc(NCCNC(=O)C2CCCCC2)nc2ccsc12` [Example 151, N-(2-(4-(2-Thienylcarbonyl)thieno[3,2-d]pyrimidin-2-yl)aminoethyl)cyclohexylcarboxamide], the Ki in data set [1] was found to be 7 nM.

On to `C[C@@H](CO)Nc1nc(C(=O)c2cccs2)c2sccc2n1` [Example 101, (2S)-2-(1-Hydroxy-2-propylamino)thieno[3,2-d]pyrimidin-4-yl 2-thienylmethanone], for which the inhibition constant Ki in data set [1] was 7 nM.

As to `Cc1ccc(C(=O)c2nc(C(F)(F)F)nc3ccsc23)cc1` [Example 29, 4-Methylphenyl 2-trifluoromethylthieno[3,2-d]pyrimidin-4-ylmethanone], the melting point lay within 127 to 129 °C. The compound further showed a Ki in data set [1] of 539 nM. In turn, `C[C@H](CO)Nc1nc(C(=O)c2cccs2)c2sccc2n1` [Example 102, (2R)-2-(1-Hydroxy-2-propylamino)thieno[3,2-d]pyrimidin-4-yl 2-thienylmethanone] gave a Ki in data set [1] of 2 nM. Compound `NCCNc1nc(C(=O)c2cccs2)c2sccc2n1` [Example 55, 2-(2-Aminoethylamino)thieno[3,2-d]pyrimidin-4-yl 2-thienylmethanone dihydrochloride] returned a Ki in data set [1] of 78 nM.

In the case of `O=C(NCCNc1nc(C(=O)c2cccs2)c2sccc2n1)OCCCl` [Example 158, 2-Chloroethyl (2-(4-(2-thienylcarbonyl)thieno[3,2-d]pyrimidin-2-yl)aminoethyl)carbamate], affinity in data set [1] was put at a Ki of 6 nM. On to `CN(CCO)c1nc(C(=O)c2cccs2)c2sccc2n1` [Example 82, 2-(N-(2-Hydroxyethyl)-N-methylamino)thieno[3,2-d]pyrimidin-4-yl 2-thienylmethanone], for which the inhibitory constant (Ki) in data set [1] was determined as 29 nM. On to `C=CCNC(=O)NCCNc1nc(C(=O)c2cccs2)c2sccc2n1` [Example 159, N-Allyl-N′-(2-(4-(2-thienylcarbonyl)thieno[3,2-d]pyrimidin-2-yl)aminoethyl)urea], for which the affinity in data set [1], expressed as Ki, was 8 nM.

For `CC(C)(C)OC(=O)N1CCN(c2nc(C(=O)c3cccs3)c3sccc3n2)CC1` [Example 84, Tert-butyl 4-(4-(2-thienylcarbonyl)thieno[3,2-d]pyrimidin-2-yl)piperazinecarboxylate], the inhibition constant Ki in data set [1] was 392 nM.

In data set [1], `O=C(c1cccs1)c1nc(NCC(O)CO)nc2ccsc12` (racemic) [Example 93, (2RS)-2-(2,3-Dihydroxypropylamino)thieno[3,2-d]pyrimidin-4-yl 2-thienylmethanone] gave a Ki of 7 nM. Compound `CN(C)c1nc(C(=O)c2cccs2)c2scc(-c3ccco3)c2n1` [Example 79, 2-Dimethylamino-7-(2-furyl)thieno[3,2-d]pyrimidin-4-yl 2-thienylmethanone] yielded a Ki in data set [1] of 858 nM. Turning to `O=C(c1cccs1)c1nc(NCCc2cnc[nH]2)nc2ccsc12` [Example 144, 2-(2-(1H-Imidazol-4-yl)ethylamino)thieno[3,2-d]pyrimdin-4-yl 2-thienylmethanone], in data set [1], affinity was put at a Ki of 5 nM.

In the case of `CN(C)CCNc1nc(C(=O)c2cccs2)c2sccc2n1` (as salt: hydrochloride) [Example 66, 2-(2-Dimethylaminoethylamino)thieno[3,2-d]pyrimidin-4-yl 2-thienylmethanone dihydrochloride], the melting point is > 150 °C (dec.). `Cc1csc2c(C(=O)c3cccs3)nc(Cl)nc12` [Example 24, 2-Chloro-7-methylthieno[3,2-d]pyrimidin-4-yl 2-thienylmethanone] yielded a melting point of 188 to 190 °C. On to `CNc1nc(C(=O)c2cccs2)c2sccc2n1` [Example 58, 2-Methylaminothieno[3,2-d]pyrimidin-4-yl thienylmethanone], for which the Ki in data set [1] was 15 nM. For the compound `O=C(c1cccs1)c1nc(NCc2ccco2)nc2ccsc12` [Example 96, 2-(2-Furylmethylamino)thieno[3,2-d]primidin-4-yl 2-thienylmethanone], the melting point is > 140 °C (dec.). As for `CN(C)CCNc1nc(C(=O)c2cccs2)c2sccc2n1` [Example 66, 2-(2-Dimethylaminoethylamino)thieno[3,2-d]pyrimidin-4-yl 2-thienylmethanone dihydrochloride], the affinity in data set [1] corresponds to a Ki of 218 nM. Regarding `OC(c1cccs1)c1nc(C(F)(F)F)nc2ccsc12` (stereo not drawn) [Example 41, α-(2-Thienyl)-2-trifluoromethylthieno[3,2-d]pyrimidine-4-methanol], the melting point fell in the range of 157 to 158 °C. With `O=C(c1cccc(Cl)c1)c1nc(C(F)(F)F)nc2ccsc12` [Example 9, 3-Chlorophenyl 2-trifluoromethylthieno[3,2-d]pyrimidin-4-ylmethanone], the melting point fell in the range of 128 to 130 °C. For `Cc1nc(C(O)c2cccs2)c2sccc2n1` (stereo not drawn) [Example 53, 2-Methyl-α-(2-thienyl)thieno[3,2-d]pyrimidine-4-methanol], the melting point fell in the range of 144 to 146 °C. In turn, `CS(=O)(=O)NNc1nc(C(=O)c2cccs2)c2sccc2n1` [Example 128, Methanesulphonic acid 2-(4-(2-thienylcarbonyl)thieno[3,2-d]pyrimidin-2-yl)hydrazide] yielded a melting point of 242.1 to 242.7 °C. For the compound `CC(CO)Nc1nc(C(=O)c2cccs2)c2sccc2n1` (racemic) [Example 89, (2RS)-2-(1-Hydroxy-2-propylamino)thieno[3,2-d]pyrimidin-4-yl 2-thienylmethanone], the inhibitory constant (Ki) in data set [1] was 3 nM. Still for that read-out and setting: as for `CN1CCN(c2nc(C(=O)c3cccs3)c3sccc3n2)CC1` [Example 83, 2-(4-Methylpiperazinyl)thieno[3,2-d]pyrimidin-4-yl 2-thienylmethanone], the figure is 863 nM; as for `CC(C)CC(=O)NCCNc1nc(C(=O)c2cccs2)c2sccc2n1` [Example 150, 3-Methyl-N-(2-(4-(2-thienylcarbonyl)thieno[3,2-d]pyrimidin-2-yl)aminoethyl)butanamide], 4 nM. `CN(CCN)c1nc(C(=O)c2cccs2)c2sccc2n1` [Example 120, 2-(N-(2-Aminoethyl)-N-methylamino)thieno[3,2-d]pyrimidin-4-yl 2-thienylmethanone] displayed a melting point of 151.6 to 152.4 °C.
